Results on 1 molecule are retold here after PMC4501059, “Responding to the challenge of untreatable gonorrhea: ETX0914, a first-in-class agent with a distinct mechanism-of-action against bacterial Type II topoisomerases” (Scientific Reports, 2015).

Values after ≈ are worked out from the molar mass of the structure shown. Like-named read-outs stand apart in the source and are kept apart here. Bounds are passed on as bounds.

Series [1] is described as follows: hepatocyte intrinsic clearance. The class given is in vitro ADME. To be noted: female, CD-1, mouse hepatocytes. An excerpt: Supplement srep11827-s1.doc, table 4 | column: CD-1 mouse (female)
The subject of series [2] is Mycoplasma pneumoniae. The arrangement: method as in ref 3 (supplement). The settings on record: 21 tested; ref 3 (supplement); cited from earlier work.
Series [3] relates to MRSA ATCC33591. In words: MIC (modal, CLSI broth microdilution). Type of series: cell-based, S. aureus. To be noted: Staphylococcus aureus, read-out: Modal MIC.
The subject of series [4] is Coagulase-negative Staphylococci. More on the design: method as in ref 2 (supplement). To be noted: 1923 tested; ref 2 (supplement); cited from earlier work.
Series [5] has as its system N. gonorrhoeae. The experiment in a line: clinical PK/PD magnitude, gonococcal infection.
The target in series [6] is S. aureus DNA gyrase (Staphylococcus aureus, UniProt P0A0K8+P20831). To be noted: free Mg2+ 0.06 μM to 8 mM.
Description: Reactions were quenched by adding 3 μl of 2% SDS and 1 mg/ml proteinase K (30 min at 37 °C). DNA loading dye (4 μl) was added and DNA products were quantified by gel electrophoresis. Samples (25 μl) were loaded into wells of 1% agarose gels buffered with 40 mM Tris, 20 mM acetic acid, and 1 mM EDTA at pH 8.4 and run for 18 to 20 hours at 30V, or 3 hours at 60V including 1 µg/ml ethidium bromide in gel running buffer. DNA bands from gel electrophoresis were visualized by staining with ethidium bromide (5 µg/ml in TAE) after electrophoresis. DNA was quantified from digital images acquired during UV transillumination using AlphaEase software (Genetic Technologies). Background from control wells without inhibitor was subtracted.
Series [7] is described as follows: comparative haematology analysis in the rat, oral dosing. To be noted: for AUC: Han Wistar, in vivo, po; for AUC / haematology versus vehicle control: rat; for haematology versus vehicle control: 28 d.
Series [8] relates to Streptococcus pyogenes. More on the design: method as in ref 2 (supplement). The settings on record: 1358 tested; ref 2 (supplement); cited from earlier work.

Chain of S. aureus DNA gyrase (P0A0K8 whole entry): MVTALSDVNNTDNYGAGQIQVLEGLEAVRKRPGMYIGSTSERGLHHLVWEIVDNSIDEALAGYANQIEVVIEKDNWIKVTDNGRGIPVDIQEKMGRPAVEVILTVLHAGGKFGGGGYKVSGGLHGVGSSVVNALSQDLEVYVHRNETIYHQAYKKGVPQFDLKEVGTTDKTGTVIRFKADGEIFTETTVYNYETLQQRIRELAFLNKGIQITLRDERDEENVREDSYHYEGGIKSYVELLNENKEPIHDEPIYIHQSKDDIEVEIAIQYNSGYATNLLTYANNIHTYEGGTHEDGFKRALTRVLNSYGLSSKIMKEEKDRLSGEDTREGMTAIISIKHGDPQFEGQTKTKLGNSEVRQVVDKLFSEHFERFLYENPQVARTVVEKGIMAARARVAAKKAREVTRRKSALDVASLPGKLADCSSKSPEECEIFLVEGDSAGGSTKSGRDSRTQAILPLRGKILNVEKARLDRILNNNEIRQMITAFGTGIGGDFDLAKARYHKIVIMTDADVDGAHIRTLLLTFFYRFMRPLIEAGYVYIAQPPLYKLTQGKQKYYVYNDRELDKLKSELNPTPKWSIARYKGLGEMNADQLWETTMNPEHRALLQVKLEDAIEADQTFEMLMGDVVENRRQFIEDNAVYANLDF
Chain of S. aureus DNA gyrase (P20831 whole entry): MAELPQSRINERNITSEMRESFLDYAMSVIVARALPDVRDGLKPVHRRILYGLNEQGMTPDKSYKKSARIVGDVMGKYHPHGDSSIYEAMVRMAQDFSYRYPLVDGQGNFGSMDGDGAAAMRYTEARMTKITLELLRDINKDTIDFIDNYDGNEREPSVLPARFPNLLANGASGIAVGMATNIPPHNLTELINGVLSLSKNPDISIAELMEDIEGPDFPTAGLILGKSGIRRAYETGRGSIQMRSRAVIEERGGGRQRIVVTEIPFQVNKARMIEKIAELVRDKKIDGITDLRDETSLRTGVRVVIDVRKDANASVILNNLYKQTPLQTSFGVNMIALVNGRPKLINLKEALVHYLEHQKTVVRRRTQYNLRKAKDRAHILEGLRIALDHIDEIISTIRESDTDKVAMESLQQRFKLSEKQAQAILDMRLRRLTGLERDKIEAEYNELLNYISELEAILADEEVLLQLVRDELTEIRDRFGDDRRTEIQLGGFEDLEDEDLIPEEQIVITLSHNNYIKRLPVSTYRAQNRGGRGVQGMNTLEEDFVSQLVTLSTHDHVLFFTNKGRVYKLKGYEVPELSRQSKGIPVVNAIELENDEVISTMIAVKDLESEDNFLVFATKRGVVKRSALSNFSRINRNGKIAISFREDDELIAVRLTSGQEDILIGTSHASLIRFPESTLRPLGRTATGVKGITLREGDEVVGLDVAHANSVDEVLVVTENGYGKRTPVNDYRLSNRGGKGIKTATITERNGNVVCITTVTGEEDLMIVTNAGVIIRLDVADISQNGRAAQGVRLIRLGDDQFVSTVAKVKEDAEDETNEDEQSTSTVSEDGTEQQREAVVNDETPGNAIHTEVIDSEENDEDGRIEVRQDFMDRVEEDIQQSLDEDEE

Molecule `C[C@@H]1CN2c3c(cc4c(N5C(=O)OC[C@@H]5C)noc4c3F)CC3(C(=O)NC(=O)NC3=O)[C@H]2[C@H](C)O1` [ETX0914] returned an intrinsic metabolic clearance (hepatocyte CLint) at 1 µM in series [1] of 7 µL/min/1e6 cells. Besides, the MIC90 in series [2] is recorded as 1.0^3 µg/ml; in series [4], 0.25^2 µg/ml; in series [8], 0.25^2 µg/ml. Moreover, the results for the “MIC Range” value in series [2], in series [4] and in series [8] were 0.5 to 1.0 µg/mL, 0.015 to 2.0 µg/mL and at most 0.015 to 0.5 µg/mL, respectively. In addition, in series [3], the MIC was found to be 0.125 µg/mL (≈ 0.256 µM). The “predicted efficacious mean AUC in humans” value in series [5] was 49000 ng·h/mL. For the same molecule, the figures for the “re-ligation of inhibitor-induced cleaved DNA on removal of Mg2+” value in series [6] and in series [6] (listed as AZD0914) were “re-ligation remained blocked” and “No ligation is observed”, respectively. For the same molecule, the AUC in series [7] (200 mg/kg) was determined as 1100 ± 130 µM·h; in series [7] (500 mg/kg), 2460 ± 470 µM·h; in series [7] (1000 mg/kg) it was 3820 ± 650 µM·h. The platelet count entry in series [7] (data not shown) was “no significant changes in platelet count”. The “haematology versus vehicle control” value in series [7] (2 lower doses (200, 500 mg/kg)) was “within statistical equivalence of the vehicle control”; in series [7] (highest dose (1000 mg/kg)), “statistical elevation in reticulocytes, lymphocytes and white blood cells”.
